Counter-ions that a name gives are not always drawn. Like-named read-outs stand apart in the source and are kept apart here.
Assays:
[1] = cited from earlier work
in vivo = conditions: rabbit; for AUC(0-inf) / AUC(0-t) / Cmax / Tmax / half-life: male, New Zealand albino, plasma
Experimental: The plasma levels of cyclobenzaprine (CBZ) were determined after a single intranasal dose of 1.5 mg/kg in a volume of 10 μl, and 3.0 mg/kg in a volume of 20 μl, and after a single oral dose of 1.5 mg/kg in New Zealand albino male rabbits.
1. The oral administration was performed with a 0.15% solution, the intranasal administration with a 15% solution.
2. Six male animals/group were treated with a single dose by intranasal or oral route.
3. Fifteen minutes before the drug administration the central artery of the ear was cannulated with a 25-gauge needle catheter and for each animal 7 blood collections at time 0 (TO, before drug administration) and at 15, 30, 60, 90, 120, 180 minutes after drug administration were performed. Three mL of blood sample were collected in heparinized tubes and the volume replaced with a Ringer-Lactate solution. The plasma samples were obtained from blood samples by centrifugation at 3000 g for 5 min. The plasma samples were be stored at −20±2° C. until the LC/MS/MS analysis.
4. Rabbit plasma concentrations of CBZ were determined using a validated LC-MS/MS method in the calibration range of 0.25-300 ng/mL.
Aliquots of 250 μL of rabbit plasma were spiked with 5 μL of internal standard (IS) solution (containing approximately 5000 ng/mL of IS, Imipramine Hydrochloride) in water:methanol (50/50, v/v), after vortex-mixing, 250 μL of borate buffer were added. After vortex-mixing, 3.5 mL of hexane were added. After vortex-mixing for 10 minutes and centrifugation at 10.000 rpm at +4° C. for 10 minutes, aliquots of 3 mL of organic phase were transferred into a single glass tube and dried under vacuum at 40° C. using a Büchi vacuum system. The residues were re-constituted with 100 μL of 20 Mm ammonium acetate buffer solution, 0.1%:acetonitrile (50/50, v/v) solution. The tubes were then capped, vortex-mixed and centrifugated at 4100 rpm at +4° C. for 10 minutes. The final extracts were transferred into an autosampler vial and 4 μL were injected into the LC-MS/MS system.
Calibration curves plot the ratio of the area of the compound and the IS (y) against the analyte concentration (x). A weighted linear regression function (1/x) is used to fit calibration lines and consequently to calculate CBZ concentrations. The lower and upper limits of quantification are 0.25 and 300 ng/mL of plasma samples.

[2] = pH higher than 7.4, opalescence formation
[3] = inhaled or intranasal, 1.5 mg/kg

AUC(0-inf) (in vivo; [3]): 65.8 ng·h/mL | AUC(0-t) (in vivo; [3]): 60.1 ng·h/mL | Cmax (in vivo; [3]): 69.3 ng/mL | Tmax (in vivo; [3]): 30 min | half-life (in vivo; [3]): 49.3 min | AUC(0-inf) (in vivo; inhaled or intranasal, 3 mg/kg): 65.6 ng·h/mL | AUC(0-t) (in vivo; inhaled or intranasal, 3 mg/kg): 54.6 ng·h/mL | Cmax (in vivo; inhaled or intranasal, 3 mg/kg): 65.1 ng/mL | Tmax (in vivo; inhaled or intranasal, 3 mg/kg): 30 min | half-life (in vivo; inhaled or intranasal, 3 mg/kg): 93.9 min | AUC(0-inf) (in vivo; po, 1.5 mg/kg): 3.44 ng·h/mL | AUC(0-t) (in vivo; po, 1.5 mg/kg): 2.08 ng·h/mL | Cmax (in vivo; po, 1.5 mg/kg): 1.28 ng/mL | Tmax (in vivo; po, 1.5 mg/kg): 30 min | half-life (in vivo; po, 1.5 mg/kg): 124 min | rate of absorption by intranasal route compared with oral route (in vivo): higher | absorption by intranasal route (in vivo; intranasal): well absorbed | λz (in vivo; intranasal 1.5 mg/kg, 15% solution): 0.940 h⁻¹ | λz (in vivo; intranasal 3.0 mg/kg, 15% solution): 0.452 h⁻¹ | dose dependence of Cmax and AUC by intranasal route (in vivo; intranasal 1.5 and 3.0 mg/kg): linear with the dose | λz (in vivo; oral 1.5 mg/kg, 0.15% solution): 0.361 h⁻¹ | solubility of cyclobenzaprine base in the buffer solution [2]: not soluble | tonicity (10% aqueous solution): ipertonic | tonicity (15% aqueous solution): ipertonic | NaCl equivalent (aqueous solution containing 5% cyclobenzaprine hydrochloride): 0.88 g-eq di NaCl | osmolarity (aqueous solution containing 5% cyclobenzaprine hydrochloride, practically isotonic): 400 mOsmol/L
SMILES: CN(C)CCC=C1c2ccccc2C=Cc2ccccc21 [Cyclobenzaprine, 3-(5H-dibenzo[a,d]cyclo-epten-5-yliden)-N,N-dimethyl-1-propanamine hydrochloride]
plasmatic half time ([1]; absorbed per os, range 8-37 hours): 18 h | time until effect of a single administration is shown ([1]; after oral taking): one | duration of effect of a single administration ([1]; oral taking): ≥ 12 h

Source: patent publication US20140024720A1, “PHARMACEUTICAL COMPOSITION CONTAINING CYCLOBENZAPRINE SUITABLE TO INTRANASAL ADMINISTRATION” (Campiglo Consulting SRL, priority 2011, published 2014)
